The record followed here is patent EP0908457B1, “3-(1,2-benzisothiazol- and isoxazol-5-Y1)-2,4(1H,3H)-pyrimidinedione or thione and 3-(1,2-benzisothiazol- and isoxazol-5-y1)-4(3H)-pyrimidinone or thione herbicidal agents” (BASF AKTIENGESELLSCHAFT, priority 1997, dated 1999).

Counter-ions that a name gives are not always drawn.

Holding throughout (format): in vivo
Assay [1] concerns Echinochloa oryzoides (Ard.) Fritsch. Kind of assay: Preemergence weed control under flooded paddy conditions, ECHORC (Watergrass (Calif.)). On herbicidal effect rating, ECHORC: meaning of each grade not given here. The settings on record: flooded paddy; for ECHORC: herbicidal effect rating 0-9, three to four weeks after treatment.
The test system of another assay is Sagittaria pygmaea, L. Kind of assay: Preemergence weed control under flooded paddy conditions, SAGPY (Arrowhead (Pygmaea)). On herbicidal effect rating, SAGPY: meaning of each grade not given here. The settings on record: flooded paddy; for SAGPY: herbicidal effect rating 0-9, three to four weeks after treatment.
Assay [2] relates to Monochoria vaginalis, Presl. Nature of the assay: Preemergence weed control under flooded paddy conditions, MOOVA (Monochoria). On herbicidal effect rating, MOOVA: meaning of each grade not given here. The settings on record: flooded paddy; for MOOVA: herbicidal effect rating 0-9, three to four weeks after treatment.
Assay [3] relates to Cyperus serotinus, Rottb. Nature of the assay: Preemergence weed control under flooded paddy conditions, CYPSE (Flatsedge). On herbicidal effect rating, CYPSE: meaning of each grade not given here. To be noted: for CYPSE: herbicidal effect rating 0-9, three to four weeks after treatment.
A further assay deals with Cyperus iria. Kind of assay: Preemergence weed control under flooded paddy conditions, CYPIR (Rice Flatsedge). On herbicidal effect rating, CYPIR: meaning of each grade not given here. To be noted: flooded paddy; for CYPIR: herbicidal effect rating 0-9, three to four weeks after treatment.
Setting [4] is: 0.0320 kg/ha, preemergence weeds.
[5] abbreviates: 0.0620 kg/ha, preemergence weeds.
The mark [6] stands for this setting: 0.1250 kg/ha, preemergence weeds.
The mark [7] stands for this setting: 0.2500 kg/ha, preemergence weeds.
Where [8] appears, read: 0.0320 kg/ha, preemergence, rated three to four weeks after treatment.
The mark [9] stands for this setting: 0.0620 kg/ha, preemergence, rated three to four weeks after treatment.
[10] abbreviates: 0.1250 kg/ha, preemergence, rated three to four weeks after treatment.
The mark [11] stands for this setting: 0.2500 kg/ha, preemergence, rated three to four weeks after treatment.
Setting [12] is: 0.0313 kg/ha, preemergence weeds, rated three to four weeks after treatment.
Setting [13] is: 0.0625 kg/ha, preemergence weeds, rated three to four weeks after treatment.
Setting [14] is: 0.1250 kg/ha, preemergence weeds, rated three to four weeks after treatment.
[15] abbreviates: 0.2500 kg/ha, preemergence weeds, rated three to four weeks after treatment.
Setting [16] is: Rate 0.0320 kg/ha, preemergence, rated 3-4 weeks after treatment.
Setting [17] is: Rate 0.0620 kg/ha, preemergence, rated 3-4 weeks after treatment.
Setting [18] is: Rate 0.1250 kg/ha, preemergence, rated 3-4 weeks after treatment.
[19] abbreviates: Rate 0.2500 kg/ha, preemergence, rated 3-4 weeks after treatment.

For “2,4(1H,3H)-Pyrimidinedione, 1-methyl-3-[(2-methylbutyryl)-1,2-benzisothiazol-5-yl]-6-(trifluoromethyl)- [Example 433]”, the ECHORC was 8.0 in assay [1] (setting [4]), 9.0 in assay [1] (setting [5]), 9.0 in assay [1] (setting [6]) and 9.0 in assay [1] (setting [7]). Besides, the SAGPY in the assay on Sagittaria pygmaea, L. (setting [4]) was found to be 2.0; in the assay on Sagittaria pygmaea, L. (setting [5]), 4.5; with Sagittaria pygmaea, L. (setting [6]) it was 6.0; in the assay on Sagittaria pygmaea, L. (setting [7]) it was 7.0. The MOOVA is recorded as 8.5 in assay [2] (setting [4]), 9.0 in assay [2] (setting [5]), 9.0 in assay [2] (setting [6]) and 9.0 in assay [2] (setting [7]). The CYPSE in assay [3] (setting [4]) is recorded as 0.0; in assay [3] (setting [5]), 6.0; in assay [3] (setting [6]) it was 7.5; in assay [3] (setting [7]), 7.5. Besides, the CYPIR in the assay on Cyperus iria (setting [4]) was 5.5; in the assay on Cyperus iria (setting [5]), 8.5; in the assay on Cyperus iria (setting [6]) it was 9.0; with Cyperus iria (setting [7]), 9.0.
With “2,4(1H,3H)-Pyrimidinedione, 3-[3-(hydroxymethyl)-1,2-benzisothiazol-5-yl]-1-methyl-6-(trifluoromethyl)-, chlorophenylacetate (ester) [Example 504]”, the ECHORC herbicidal rating worked out at 2.0 in assay [1] (setting [8]), 3.0 in assay [1] (setting [9]), 6.0 in assay [1] (setting [10]) and 7.0 in assay [1] (setting [11]). Moreover, the SAGPY herbicidal rating in the assay with Sagittaria pygmaea, L. (setting [8]) amounted to 0.0; with Sagittaria pygmaea, L. (setting [11]), 7.0. In addition, the MOOVA herbicidal rating is given as 6.0 in assay [2] (setting [8]), 8.0 in assay [2] (setting [9]), 9.0 in assay [2] (setting [10]) and 9.0 in assay [2] (setting [11]). For the same compound, the CYPSE herbicidal rating in assay [3] (setting [8]), in assay [3] (setting [9]) and in assay [3] (setting [10]) was 0.0 in each case. Moreover, the CYPIR herbicidal rating in the assay with Cyperus iria (setting [8]) is recorded as 4.0; in the assay on Cyperus iria (setting [9]), 7.0; with Cyperus iria (setting [10]) it was 9.0; in the assay on Cyperus iria (setting [11]), 9.0.
Take `Cc1ccc(OCC(=O)OC(C)C(=O)O)c(-c2nsc3ccc(-n4c(=O)cc(C(F)(F)F)n(C)c4=O)cc23)c1` (racemic) [Example 190, 2-{{2-{5-[3,6-Dihydro-3-methyl-2,6-dioxo-4-(trifluoromethyl)-1(2H)-pyrimidinyl]-1,2-benzisothiazol-3-yl}-p-tolyl}oxy}acetoxy}-propionic acid, DL-]: the “herbicidal effect rating, ECHORC” value in assay [1] (setting [12]) came out at 2.0; in assay [1] (setting [13]), 4.0; in assay [1] (setting [14]), 7.0; in assay [1] (setting [15]), 8.0. Also, the “herbicidal effect rating, SAGPY” value in the assay with Sagittaria pygmaea, L. (setting [12]) is 0.0; with Sagittaria pygmaea, L. (setting [13]), 0.0; with Sagittaria pygmaea, L. (setting [14]), 0.0; in the assay with Sagittaria pygmaea, L. (setting [15]), 0.0. Further, the “herbicidal effect rating, MOOVA” value in assay [2] (setting [12]), in assay [2] (setting [13]), in assay [2] (setting [14]) and in assay [2] (setting [15]) was 9.0 throughout. The “herbicidal effect rating, CYPSE” value in assay [3] (setting [12]), in assay [3] (setting [13]), in assay [3] (setting [14]) and in assay [3] (setting [15]) was 0.0 each time. The “herbicidal effect rating, CYPIR” value with Cyperus iria (setting [12]) was 0.0; in the assay with Cyperus iria (setting [13]), 0.0; with Cyperus iria (setting [14]), 2.0; with Cyperus iria (setting [15]), 4.0.
On to `Cc1ccc(OCC(=O)OCC2CCOC2)c(-c2nsc3ccc(-n4c(=O)cc(C(F)(F)F)n(C)c4=O)cc23)c1` (racemic) [Example 535, Acetic acid, {{2-{5-[3,6-dihydro-3-methyl-2,6-dioxo-4-(trifluoromethyl)-1(2H)-pyrimidinyl]-1,2-benzisothiazol-3-yl}-p-tolyl}oxy}-, (tetrahydro-3-furyl)methyl ester, DL-], for which the “herbicidal effect rating, ECHORC” value in assay [1] (setting [16]) turned out to be 0.0; in assay [1] (setting [17]) it was 3.0; in assay [1] (setting [18]), 3.0; in assay [1] (setting [19]) it was 4.0. Besides, the “herbicidal effect rating, SAGPY” value in the assay on Sagittaria pygmaea, L. (setting [16]) is given as 0.0; in the assay with Sagittaria pygmaea, L. (setting [17]), 0.0; in the assay on Sagittaria pygmaea, L. (setting [18]) it was 3.0; in the assay with Sagittaria pygmaea, L. (setting [19]), 3.0. The “herbicidal effect rating, MOOVA” value stood at 6.0 in assay [2] (setting [16]), 9.0 in assay [2] (setting [17]), 9.0 in assay [2] (setting [18]) and 9.0 in assay [2] (setting [19]). The “herbicidal effect rating, CYPSE” value was 0.0 in assay [3] (setting [16]), 3.0 in assay [3] (setting [17]), 5.0 in assay [3] (setting [18]) and 5.0 in assay [3] (setting [19]). Also, the “herbicidal effect rating, CYPIR” value amounted to 0.0 with Cyperus iria (setting [16]), 6.0 with Cyperus iria (setting [17]), 9.0 with Cyperus iria (setting [18]) and 9.0 in the assay on Cyperus iria (setting [19]).
Turning to `CCCCS(=O)(=O)OC(C)c1nsc2ccc(-n3c(=O)cc(C(F)(F)F)n(C)c3=O)cc12` (stereo not drawn) [Example 414, 2,4(1H,3H)-Pyrimidinedione, 3-[3-(1-hydroxyethyl)-1,2-benzisothiazol-5-yl]-1-methyl-6-(trifluoromethyl)-, butanesulfonate (ester)], the ECHORC in assay [1] (setting [4]) was 0.0; in assay [1] (setting [5]) it was 0.0; in assay [1] (setting [6]) it was 2.0; in assay [1] (setting [7]), 7.0. Further, the MOOVA in assay [2] (setting [5]), in assay [2] (setting [6]) and in assay [2] (setting [7]) was 7.0 each time. The figures for the CYPSE in assay [3] (setting [4]) and in assay [3] (setting [7]) were 0.0 and 9.0, respectively. The CYPIR in the assay on Cyperus iria (setting [4]) worked out at 0.0; in the assay on Cyperus iria (setting [5]), 2.0; in the assay with Cyperus iria (setting [6]), 6.0; in the assay with Cyperus iria (setting [7]), 9.0.
As to `Cn1c(C(F)(F)F)cc(=O)n(-c2ccc3snc(C(=O)NOS(=O)(=O)O)c3c2)c1=O` [Example 417, 1,2-Benzisothiazole-3-carbohydroxamic acid, 5-[3,6-dihydro-3-methyl-2,6-dioxo-4-(trifluoromethyl)-1(2H)-pyrimidinyl]-, hydrogen sulfate (ester)], the ECHORC in assay [1] (setting [4]) was 0.0; in assay [1] (setting [5]), 0.0; in assay [1] (setting [6]), 3.0; in assay [1] (setting [7]), 3.0. Further, the MOOVA in assay [2] (setting [4]) is reported as 6.0; in assay [2] (setting [5]), 6.0; in assay [2] (setting [6]), 9.0; in assay [2] (setting [7]), 9.0. Further, in assay [3] (setting [6]), the CYPSE amounted to 3.0. In addition, the CYPIR in the assay with Cyperus iria (setting [4]) amounted to 4.0; in the assay on Cyperus iria (setting [5]), 4.0; in the assay with Cyperus iria (setting [6]), 5.0; in the assay on Cyperus iria (setting [7]), 6.0.
`CC(=O)OCCSC(SCCOC(C)=O)c1nsc2ccc(-n3c(=O)cc(C(F)(F)F)n(C)c3=O)cc12` [Example 418, 1,2-Benzisothiazole-3-carboxaldehyde, 5-[3,6-dihydro-3-methyl-2,6-dioxo-4-(trifluoromethyl)-1(2H)-pyrimidinyl]-, 3-[bis(2-hydroxyethyl)dithioacetal], diacetate (diester)]: the results for the ECHORC in assay [1] (setting [5]), in assay [1] (setting [6]) and in assay [1] (setting [7]) were 0.0, 1.0 and 3.0, respectively. For the same compound, the MOOVA in assay [2] (setting [5]), in assay [2] (setting [6]) and in assay [2] (setting [7]) was 0.0 in each case. Also, the CYPSE in assay [3] (setting [5]) and in assay [3] (setting [7]) was 0.0 each time. The CYPIR with Cyperus iria (setting [5]), in the assay with Cyperus iria (setting [6]) and in the assay with Cyperus iria (setting [7]) was 0.0 throughout.
Take `Cn1c(C(F)(F)F)cc(=O)n(-c2ccc3snc(C(SCCO)SCCO)c3c2)c1=O` [Example 419, 1,2-Benzisothiazole-3-carboxaldehyde, 5-[3,6-dihydro-3-methyl-2,6-dioxo-4-(trifluoromethyl)-1(2H)-pyrimidinyl]-, 3-[bis(2-hydroxyethyl)dithioacetal]]: the ECHORC in assay [1] (setting [5]) was 0.0; in assay [1] (setting [6]), 2.0; in assay [1] (setting [7]), 7.0. Also, the MOOVA in assay [2] (setting [5]) is 0.0; in assay [2] (setting [6]) it was 4.0; in assay [2] (setting [7]), 5.0. In addition, the CYPSE in assay [3] (setting [5]), in assay [3] (setting [6]) and in assay [3] (setting [7]) was 0.0 in each case. Further, the CYPIR in the assay with Cyperus iria (setting [5]) worked out at 0.0; with Cyperus iria (setting [6]), 3.0; in the assay with Cyperus iria (setting [7]), 6.0.
